Data set [1] in a line: Syringeability of dosing solutions (dripping-syringe method). It is filed as physicochemical. How it is done:
Table 4, below, provides evaluations of the syringeability of dosing solutions of selected florfenicol benzylic carbonate prodrugs at concentrations equivalent to 300 mg/ml florfenicol (30% weight/volume).
High concentrations of fenicol or fenicol drug contained in a fenicol prodrug are often necessary for convenient administration of the necessary amount of the desired amount of the antibiotic. Due to the limited solubility of fenicols in many organic solvents or mixtures of solvents acceptable for injectable formulations the choice of solvents for preparation of highly concentrated florfenicol solutions is limited. As a result highly concentrated solutions of fenicol drugs in organic solvents or solvent mixtures may become highly viscous and difficult to administer by a syringe. Therefore the ability of fenicol benzylic carbonate prodrugs to dissolve in a wider range of organic solvents or mixtures of solvents acceptable for injectable formulations offered the potential to prepare highly concentrated solutions for injections with lower viscosity. […] Test solutions of florfenicol benzylic carbonates containing concentrations of florfenicol (mg/mL) equivalent to the concentration present in Nuflor® formulation were prepared. Syringeabilities of the solutions were evaluated by means of the “dripping syringe” method in which the dripping times (sec) of equal volumes of such solutions under free gravitational flow conditions from a vertically positioned syringe were measured at 15° C. After removing the plunger from a 5 ml polyethylene disposable syringe (5 ml Luer, Norm-Ject Zentrish/Henke Saas Wolf GMBH) and fitting the syringe with a disposable needle (B-D® 16G1 Precision Glide/BentonDickinson & CO) the test solutions were loaded from the top into the syringe and the time necessary for the free flow of 2 mL of solution (between 3 ml and 1 ml marks) was recorded in triplicate. The syringeabilities relative to Nuflor® were calculated by dividing the dripping time for the test solutions (entries 1-12) by the dripping time measured for the commercial sample of Nuflor® formulation (entry 13) As it is evident from the results in Table 4 the syringeabilities of tested solutions containing benzyl alcohol as viscosity diluent had relative syringeabilities <1.00 and were therefore better than Nuflor® (30% weight/volume florfenicol solution in propylene glycol/polyethylene glycol 300/2-methyl pyrolidinone). Due to their better syringeability these solutions represent more favorable formulations for injectable delivery of florfenicol. Solution of the florfenicol benzylic carbonate of the example 2 in triacetin/2-pyrolidinone—1/1 lacking the benzyl alcohol viscosity diluent was the only solution with syringeability poorer that than that of Nuflor® (entry 5).

The nature of data set [2]: Aqueous solubility. It is filed as physicochemical. The note with it: aqueous medium (not further specified). How it is done:
In some therapeutic applications florfenicol is administered in concentrated organic solution subcutaneously where it is known to form localized depot of the drug which results in the desired sustained release of the drug into the circulation. In such cases solubility of florfenicol in aqueous media represents one of important factors determining the rate of the sustained release. Another important factor affecting the sustained release of florfenicol from the subcutaneous depot site is the concentration of the dosing solution and the solvent composition of the formulation. Apart from the broader range of solvents which can be used for acceptable formulations of florfenicol benzylic carbonate prodrugs these prodrugs also allow a wide range of aqueous solubilities. Solubilities achieved with these prodrugs range from slightly to dramatically lower than that of florfenicol. Reduced aqueous solubilities of such prodrugs may be useful in controlling the rate of dissolution of the prodrug at the subcutaneous depot site and may allow achieving optimized sustained release of the parent drug.

Data set [3] is described as follows: In vitro enzymatic release of parent florfenicol from prodrugs in bovine serum. It is filed as in vitro ADME. The note with it: for Florfenicol released from prodrugs (% of total) after treatment with bovine serum: 37° C.; for rates of florfenicol release in serum: bovine serum, among the compounds tested. The text has this:
The ability of a prodrug derivative of a parent drug molecule to act efficiently in vivo as a source of the free parent drug determines the utility of a particular prodrug for treatment. The prodrug's ability to release the parent drug in vivo, in the presence of endogenous enzymes, can be determined by measuring the systemic levels of the parent drug after administration of the prodrug to the animal. This releasibility can also be assessed in vitro by measuring the release of the parent drug after mixing with animal whole blood, plasma or serum. Selected benzylic carbonate prodrugs of florfenicol were tested for release of florfenicol after in vitro mixing with bovine serum. […] A general trend of more lipophilic carbonates of florfenicol showing higher rates of degradation and release seems to be present among the compounds tested.
50 microliter of stock solution of carbonate pro-drug (10 mg/mL in DMSO) was added to 5 mL donor bovine serum and mixed. Aliquots of 400 microliter of the resulting solution were transferred into 1.5 mL plastic centrifuge tubes. Each plastic tube was placed into at 37° C. water bath for incubation. Samples were removed at 0, 1, 2, 4, 8, and 24 hours, and after addition of 400 microliter of acetonitrile to stop the reaction, rapidly stirred for 30 seconds. The precipitate was removed by centrifugation on an Eppendorf 5415G at 14000 rpm for 5 minutes. The clear supernatant solution was sampled for the HPLC analysis. The peak area of florfenicol was used to calculate the conversion of the prodrugs.

Data set [4] is described as follows: Solubility in triacetin/benzyl alcohol 2:1 (volume/volume) solvent mixture. Format: physicochemical. The note with it: 20° C. How it is done: Florfenicol parent drug was not soluble in triacetin/benzyl alcohol 2:1 (volume/volume) even at concentrations as low as 10% (weight/volume). […] The combination of prodrug of Example 14 at 275 mg/ml and florfenicol at 100 mg/ml was soluble in triacetin/benzyl alcohol 2:1 (volume/volume) and provided a stable solution with 30% (weight/volume) content of florfenicol (Table 4, supra, entry 12).

Setting [5] is: prodrug concentration equivalent to 300 mg/ml florfenicol, Triacetin/benzyl alcohol/2-pyrolidinone - 2:1:1.5, 15° C.
The mark [6] stands for this setting: prodrug concentration equivalent to 300 mg/ml florfenicol, Triacetin/benzyl alcohol - 2:1 (vol/vol), 15° C.
The mark [7] stands for this setting: prodrug concentration equivalent to 300 mg/ml florfenicol, Triacetin/benzyl alcohol - 2:1 (vol/vol), free flow of 2 mL at 15° C.
[8] abbreviates: 300 mg/ml, N-methyl 2-pyrolidinone/propylene glycol/polyethylene glycol 300, 15° C.

In brackets after ≈: the same amount, converted by molar mass.

As usually defined, the solubility is how much of the substance goes into solution per volume. As a reminder, the melting point is the temperature, or range, at which the solid turns liquid. Regarding `CC(C)OC(=O)O[C@H](c1ccc(S(C)(=O)=O)cc1)[C@@H](CF)NC(=O)C(Cl)Cl` [Example 4, (1R,2S)-2-(2,2-dichloroacetamido)-3-fluoro-1-(4-(methylsulfonyl)phenyl)propyl isopropyl carbonate], the melting point lay in the range of 148 to 150 °C. Further, in data set [1] (setting [5]), the “Syringeability measurement: Dripping time” value turned out to be 164 ± 3 s and the “Syringeability measurement: Relative to NUFLOR” value was 0.70. Moreover, the solubility in data set [2] is 100 µg/mL (≈ 225 µM). Besides, in data set [3] (0 h), the “Florfenicol released from prodrugs (% of total) after treatment with bovine serum” value is recorded as “BQL”. In data set [3] (1 h), the “Florfenicol released from prodrugs (% of total) after treatment with bovine serum” value is on record as “BQL”. The “Florfenicol released from prodrugs (% of total) after treatment with bovine serum” value in data set [3] (2 h) was “BQL”.
Consider `CC(C)COC(=O)O[C@H](c1ccc(S(C)(=O)=O)cc1)[C@@H](CF)NC(=O)C(Cl)Cl` [Example 5, (1R,2S)-2-(2,2-dichloroacetamido)-3-fluoro-1-(4-(methylsulfonyl)phenyl)propyl isobutyl carbonate], for which the melting point was in the range of 156 to 158 °C. The same molecule had a solubility in data set [2] of 7 µg/mL (≈ 15.3 µM).
Molecule `CS(=O)(=O)c1ccc([C@@H](OC(=O)OCC2CC2)[C@@H](CF)NC(=O)C(Cl)Cl)cc1` [Example 6, Cyclopropylmethyl(1R,2S)-2-(2,2-dichloroacetamido)-3-fluoro-1-(4-(methylsulfonyl)phenyl)propyl carbonate] returned a melting point of 132 to 134 °C. Besides, the concentration in solution in data set [2] (solubility) was 120 µg/mL (≈ 263 µM).
Regarding `CC(C)CCOC(=O)O[C@H](c1ccc(S(C)(=O)=O)cc1)[C@@H](CF)NC(=O)C(Cl)Cl` [Example 8, (1R,2S)-2-(2,2-dichloroacetamido)-3-fluoro-1-(4-(methylsulfonyl)phenyl)propyl isopentyl carbonate], the melting point lay in the range of 120 to 122 °C. In addition, in data set [1] (setting [5]), the “Syringeability measurement: Dripping time” value came out at 157 ± 1 s and the “Syringeability measurement: Relative to NUFLOR” value is on record as 0.67. This molecule also showed a solubility in data set [2] of 25 µg/mL (≈ 52.9 µM). The “Florfenicol released from prodrugs (% of total) after treatment with bovine serum” value in data set [3] (0 h) is recorded as “BQL”. The “rates of florfenicol release in serum” value in data set [3] was “highest rates”.
The molecule `COCCOC(=O)O[C@H](c1ccc(S(C)(=O)=O)cc1)[C@@H](CF)NC(=O)C(Cl)Cl` [Example 11, (1R,2S)-2-(2,2-dichloroacetamido)-3-fluoro-1-(4-(methylsulfonyl)phenyl)propyl 2-methoxyethyl carbonate] returned a solubility in data set [2] of 770 µg/mL (≈ 1670 µM).
On to `CCOCCOC(=O)O[C@H](c1ccc(S(C)(=O)=O)cc1)[C@@H](CF)NC(=O)C(Cl)Cl` [Example 12, (1R,2S)-2-(2,2-dichloroacetamido)-3-fluoro-1-(4-(methylsulfonyl)phenyl)propyl 2-ethoxyethyl carbonate], for which the melting point was 88 to 90 °C. Moreover, the solubility in data set [2] was determined as 350 µg/mL (≈ 738 µM).
Take `CCCCOCCOC(=O)O[C@H](c1ccc(S(C)(=O)=O)cc1)[C@@H](CF)NC(=O)C(Cl)Cl` [Example 13, (1R,2S)-2-(2,2-dichloroacetamido)-3-fluoro-1-(4-(methylsulfonyl)phenyl)propyl 2-butoxyethyl carbonate]: in data set [1] (setting [6]), the “Syringeability measurement: Relative to NUFLOR” value is 0.61. Further, the “Syringeability measurement: Dripping time” value in data set [1] (setting [7]) was 141 ± 5 s. In addition, the solubility in data set [2] turned out to be 150 µg/mL (≈ 299 µM). The “Solubility at selected concentration of contained florfenicol” value (shortened to “Solubility at selected concentration”) in data set [4] (10% weight/volume florfenicol), in data set [4] (20% weight/volume florfenicol), in data set [4] (25% weight/volume florfenicol), in data set [4] (30% weight/volume florfenicol), in data set [4] (35% weight/volume florfenicol) and in data set [4] (37% weight/volume florfenicol) was “soluble” in each case. For the same molecule, the “Solubility at selected concentration” value in data set [4] (40% weight/volume florfenicol) was “soluble”. Besides, the “Florfenicol released from prodrugs (% of total) after treatment with bovine serum” value in data set [3] (0 h) and in data set [3] (1 h) was “BQL” throughout.
Take `CS(=O)(=O)c1ccc([C@@H](OC(=O)OCc2ccccc2)[C@@H](CF)NC(=O)C(Cl)Cl)cc1` [Example 14, Benzyl(1R,2S)-2-(2,2-dichloroacetamido)-3-fluoro-1-(4-(methylsulfonyl)phenyl)propyl carbonate]: the melting point lay within 105 to 106 °C. Also, in data set [1] (setting [6]), the “Syringeability measurement: Relative to NUFLOR” value is on record as 0.88. Further, the “Syringeability measurement: Dripping time” value in data set [1] (setting [7]) stood at 204 ± 9 s. The molecule further gave a solubility in data set [2] of 32 µg/mL (≈ 65 µM). The “Solubility at selected concentration” value in data set [4] (10% weight/volume florfenicol) is “soluble”. Further, the “Solubility at selected concentration” value in data set [4] (20% weight/volume florfenicol) is recorded as “soluble”. Besides, the “Solubility at selected concentration” value in data set [4] (25% weight/volume florfenicol) is on record as “soluble”. Besides, the “Solubility at selected concentration” value in data set [4] (30% weight/volume florfenicol) is “soluble”. The “Solubility at selected concentration” value in data set [4] (35% weight/volume florfenicol) is on record as “soluble”. Further, the “Solubility at selected concentration” value in data set [4] (37% weight/volume florfenicol) was “soluble”. Further, in data set [4] (40% weight/volume florfenicol), the “Solubility at selected concentration” value is listed as “insoluble”. In addition, the “Florfenicol released from prodrugs (% of total) after treatment with bovine serum” value in data set [3] (0 h) is given as “BQL”. In data set [3], the “rates of florfenicol release in serum” value is listed as “highest rates”.
The molecule `CCOC(=O)[C@H](C)OC(=O)O[C@H](c1ccc(S(C)(=O)=O)cc1)[C@@H](CF)NC(=O)C(Cl)Cl` [Example 17] displayed a melting point of 44 to 54 °C. Besides, the solubility in data set [2] was 550 µg/mL (≈ 1090 µM).
Turning to `CS(=O)(=O)c1ccc([C@@H](O)[C@@H](CF)NC(=O)C(Cl)Cl)cc1` [Florfenicol, D-(threo)-1-(4-methylsulfonylphenyl)-2-dichloroacetamido-3-fluoro-1-propanol, reference compound], the “Syringeability measurement: Dripping time” value in data set [1] (setting [8]) was found to be 233 ± 2 s. In data set [1] (setting [8]), the “Syringeability measurement: Relative to NUFLOR” value was determined as 1.00. Also, the solubility in data set [2] stood at 1530 µg/mL (≈ 4270 µM). Besides, the “Solubility at selected concentration” value in data set [4] (10% weight/volume florfenicol) was “not soluble”; in data set [4] (10% weight/volume florfenicol, listed as florfenicol), “insoluble”; in data set [4] (20% weight/volume florfenicol), “insoluble”; in data set [4] (25% weight/volume florfenicol), “insoluble”; in data set [4] (30% weight/volume florfenicol), “insoluble”; in data set [4] (35% weight/volume florfenicol), “insoluble”. Moreover, the “Solubility at selected concentration” value in data set [4] (37% weight/volume florfenicol) and in data set [4] (40% weight/volume florfenicol) was “insoluble” each time.

These data come from patent US8119667B2, “Carbonates of fenicol antibiotics” (Schering-Plough Animal Health Corporation, priority 2005, dated 2012).
